Assay results taken from patent US9920030B2 (priority 2006, dated 2018).
Where two headings read alike, the source gives them in different places.

Legend:
Assay type in all cases: in vivo
[1] = system: Plasmopara vilicola (the causal agent of grape downy mildew); assay: Test A: grape downy mildew, test suspension sprayed on grape seedlings after inoculation, visual disease rating; settings: for pest or weed control at 40 ppm: Plasmopara, 144 h, read-out: Percent Disease Control, Test A
Procedure, shortened: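 Compounds dissolved in acetone (3% of final volume), suspended in 50/50 acetone/water with 250 ppm Trem 014; 200 ppm to run-off equals 500 g/ha. Seedlings inoculated, held saturated at 20 °C 24 h, then sprayed; 5 days at 20 °C, 24 h saturated, then visual rating, 0–100% control versus untreated.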

[2] = system: Phytophthora infestans (the causal agent of tomato late blight); assay: whole plant or invertebrate; settings: for pest or weed control at 40 ppm: Phytophthora infestans, 144 h, read-out: Percent Disease Control, Test B
[3] = system: Phytophthora infestans (the causal agent of tomato late blight); assay: whole plant or invertebrate; settings: for pest or weed control at 40 ppm: Phytophthora infestans, 96 h, read-out: Percent Disease Control, Test C
[4] = compounds without asterisk (application rate not given), 100 = 100% disease control, 0 = no control relative to the controls

Structure (SMILES) | Percent Disease Control, Test A ([1]; * tested at 40 ppm) [%] | Percent Disease Control, Test B ([2]; * tested at 40 ppm) [%] | Percent Disease Control, Test C ([3]; * tested at 40 ppm) [%] | further results
Cc1cc(C(F)(F)F)nn1CC(=O)N1CCC(c2nc(C3=NOC4(c5ccccc5)CCCCC34)cs2)CC1 (stereo not drawn) [Compound 209] | 99 | 100 | 90 | 
Cc1cc(C(F)(F)F)nn1CC(=O)N1CCC(c2nc(-c3cc(-c4ccccc4C(=O)O)on3)cs2)CC1 [Compound 210] |  |  |  | Percent Disease Control, Test A [1, 4]: 91%; Percent Disease Control, Test B [2, 4]: 100%; Percent Disease Control, Test C [3, 4]: 83%
Cc1cc(C(F)(F)F)nn1CC(=O)N1CCC(c2nc(C3=NOC(OC(C)(C)C)C3)cs2)CC1 (stereo not drawn) [Compound 211] | 100 | 100 | 99 | 
Cc1cc(C(F)(F)F)nn1CC(=O)N1CCC(c2nc(C3=NOC4(CCN(c5ccccc5)CC4)C3)cs2)CC1 [Compound 212] | 98 | 100 | 99 | 
Cc1cc(C(F)(F)F)nn1CC(=O)N1CCC(c2nc(C3=NOC(N4CCOC4=O)C3)cs2)CC1 (stereo not drawn) [Compound 213] | 94 | 100 | 98 | 
Cc1cc(C(F)(F)F)nn1CC(=O)N1CCC(c2nc(C3=NO[C@@H](c4c(F)cccc4F)C3)cs2)CC1 [Compound 214, 1-[4-[4-[(5R)-5-(2,6-difluorophenyl)-4,5-dihydro-3-isoxazolyl]-2-thiazolyl]-1-piperidinyl]-2-[5-methyl-3-(trifluoromethyl)-1H-pyrazol-1-yl]ethanone] |  |  |  | pest or weed control at 40 ppm ([1]; * tested at 40 ppm): 100%; pest or weed control at 40 ppm [2]: 100%; pest or weed control at 40 ppm [3]: 99%
Cc1cc(C(F)(F)F)nn1CC(=O)N1CCC(c2nc(C3=NOC(N4C(=O)CCC4=O)C3)cs2)CC1 (stereo not drawn) [Compound 215] | 99 | 100 | 99 | 
Cc1cc(C(F)(F)F)nn1CC(=O)N1CCC(c2nc(C3=NOC(NC(=O)c4ccccc4C(=O)[O-])C3)cs2)CC1.[Na+] (stereo not drawn) [Compound 216] | 100 | 100 | 99 | 
Cc1cc(C(F)(F)F)nn1CC(=O)N1CC=C(c2nc(C3=NOC(c4ccccc4)C3)cs2)CC1 (stereo not drawn) [Compound 217, 1-[4-[4-(4,5-dihydro-5-phenyl-3-isoxazolyl)-2-thiazolyl]-3,6-dihydro-1(2H)-pyridinyl]-2-[5-methyl-3-(trifluoromethyl)-1H-pyrazol-1 yl]ethanone] |  |  |  | pest or weed control at 40 ppm ([1]; * tested at 40 ppm): 95%; pest or weed control at 40 ppm [2]: 100%; pest or weed control at 40 ppm [3]: 99%
Cc1cc(C(F)(F)F)nn1CC(=O)N1CCC(c2nc(C3=NOC4(C)C(=O)c5ccccc5C(O)=C34)cs2)CC1 (stereo not drawn) [Compound 218] | 73 | 63 | 47 | 
Cc1cc(C(F)(F)F)nn1CC(=O)N1CCC(c2nc(C3=NOC(c4nc5ccccc5n4C)C3)cs2)CC1 (stereo not drawn) [Compound 219] |  |  |  | Percent Disease Control, Test A [1, 4]: 100%; Percent Disease Control, Test B [2, 4]: 100%; Percent Disease Control, Test C [3, 4]: 99%
COC(=O)c1ccccc1C1CC(c2csc(C3CCN(C(=O)Cn4nc(C(F)(F)F)cc4C)CC3)n2)=NO1 (stereo not drawn) [Compound 221] |  |  |  | Percent Disease Control, Test A [1, 4]: 100%; Percent Disease Control, Test B [2, 4]: 100%; Percent Disease Control, Test C [3, 4]: 99%
Cc1cc(C(F)(F)F)nn1CC(=O)N1CCC(c2nc(C3=NOC(N4C(=O)C(=O)c5ccccc54)C3)cs2)CC1 (stereo not drawn) [Compound 222] |  |  |  | Percent Disease Control, Test A [1, 4]: 100%; Percent Disease Control, Test B [2, 4]: 100%; Percent Disease Control, Test C [3, 4]: 100%
Cc1cc(C(F)(F)F)nn1CC(=O)N1CCC(c2nc(C3=NOC(N4C(=O)OC(C)(C)C4=O)C3)cs2)CC1 (stereo not drawn) [Compound 223] |  |  |  | Percent Disease Control, Test A [1, 4]: 100%; Percent Disease Control, Test B [2, 4]: 100%; Percent Disease Control, Test C [3, 4]: 100%
C=CN1C(=O)C2ON=C(c3csc(C4CCN(C(=O)Cn5nc(C(F)(F)F)cc5C)CC4)n3)C2C1=O (stereo not drawn) [Compound 224] |  |  |  | Percent Disease Control, Test A [1, 4]: 0%; Percent Disease Control, Test B [2, 4]: 63%; Percent Disease Control, Test C [3, 4]: 0%
Cc1cc(C(F)(F)F)nn1CC(=O)N1CCC(c2nc(C3=NOC(C(=O)N4CCOCC4)C3)cs2)CC1 (stereo not drawn) [Compound 226] |  |  |  | Percent Disease Control, Test A [1, 4]: 83%; Percent Disease Control, Test B [2, 4]: 100%; Percent Disease Control, Test C [3, 4]: 99%
CCC(=O)N1N=C(c2csc(C3CCN(C(=O)Cn4nc(C(F)(F)F)cc4C)CC3)n2)OC12CCCc1ccccc12 (stereo not drawn) [Compound 227] |  |  |  | Percent Disease Control, Test A [1, 4]: 100%; Percent Disease Control, Test B [2, 4]: 100%; Percent Disease Control, Test C [3, 4]: 100%
Cc1cc(C(F)(F)F)nn1CC(=O)N1CCC(c2nc(C3=NN(C(=O)C(C)C)C4(CCCc5ccccc54)O3)cs2)CC1 (stereo not drawn) [Compound 228] |  |  |  | Percent Disease Control, Test A [1, 4]: 99%; Percent Disease Control, Test B [2, 4]: 100%; Percent Disease Control, Test C [3, 4]: 100%

Structure (SMILES) | Percent Disease Control, Test A ([1]; * tested at 40 ppm) [%] | Percent Disease Control, Test B ([2]; * tested at 40 ppm) [%] | Percent Disease Control, Test C ([3]; * tested at 40 ppm) [%] | further results
O=C(Cn1nc(C(F)(F)F)cc1Cl)N1CCC(c2nc(C3=NO[C@]4(CCc5ccccc54)C3)cs2)CC1 [Compound 232, 2-[5-chloro-3-(trifluoromethyl)-1H-pyrazol-1-yl]-1-[4-[4-[(1R)-2,3-dihydrospiro[1-indene-1,5′(4′H)-isoxazol]-3′-yl]-2-thiazolyl]-1-piperidinyl]ethanone] |  |  |  | Percent Disease Control, Test A ([1]; ** tested at l0 ppm): 100%; Percent Disease Control, Test B ([2]; ** tested at l0 ppm): 100%; Percent Disease Control, Test C ([3]; ** tested at l0 ppm): 100%
Cc1cc(C(F)(F)F)nn1CC(=O)N1CCC(c2nc(C3=NOC(N4Cc5ccccc5C4=O)C3)cs2)CC1 (stereo not drawn) [Compound 233] | 100 | 100 | 100 | 
Cc1cc(C(F)(F)F)nn1CC(=O)N1CCC(c2nc(C3=NOC(N4C(=O)CN(C)C4=O)C3)cs2)CC1 (stereo not drawn) [Compound 234] | 99 | 100 | 100 | 
Cc1cc(C(F)(F)F)nn1CC(=O)N1CCC(c2nc(C3=NOC(N4C(=O)N(C)C(C)(C)C4=O)C3)cs2)CC1 (stereo not drawn) [Compound 235] | 99 | 100 | 100 | 
Cc1cc(C(F)(F)F)nn1CC(=O)N1CCC(c2nc(C3=NOC(N4C(=O)c5ccccc5S4(=O)=O)C3)cs2)CC1 (stereo not drawn) [Compound 236] | 100 | 100 | 100 | 
CCOC(=O)c1cc(C)nn1CC(=O)N1CCC(c2nc(C3=NOC(c4ccccc4)C3)cs2)CC1 (stereo not drawn) [Compound 238] | 100 | 100 | 100 | 
CCOc1cc(C(F)(F)F)nn1CC(=O)N1CCC(c2nc(C3=NOC(c4ccccc4)C3)cs2)CC1 (stereo not drawn) [Compound 241] | 100 | 100 | 100 | 
Cc1cc(C(F)(F)F)nn1CC(=O)N1CCC(c2nc(N3CC(c4ccccc4)OC3=O)cs2)CC1 (stereo not drawn) [Compound 242] | 99 | 100 | 85 | 
Cc1cc(C(F)(F)F)nn1CC(=O)N1CCC(c2nc(C3=NOC(N4C(=O)CCCC4=O)C3)cs2)CC1 (stereo not drawn) [Compound 243] |  |  |  | Percent Disease Control, Test A ([1]; ** tested at l0 ppm): 99%; Percent Disease Control, Test B ([2]; ** tested at l0 ppm): 100%; Percent Disease Control, Test C ([3]; ** tested at l0 ppm): 100%
Cc1cc(C(F)(F)F)nn1CC(=O)N1CCC(c2nc(C3=NOC(n4oc(=O)n(C(C)C)c4=O)C3)cs2)CC1 (stereo not drawn) [Compound 244] | 98 | 100 | 99 | 
Cc1cc(C(F)(F)F)nn1CC(=O)N1CCC(c2nc(-c3ccc(F)cc3)cs2)CC1 [Compound 245] | 99 | 74 | 0 | 
Cc1cc(C(F)(F)F)nn1CC(=O)N1CCC(c2nc(-c3ccc(C(C)(C)C)cc3)cs2)CC1 [Compound 246] | 99 | 79 | 40 | 
Cc1cc(C(F)(F)F)nn1CC(=O)N1CCC(c2nc(-c3ccc(C#N)cc3)cs2)CC1 [Compound 247] | 99 | 100 | 88 | 
Cc1cc(C(F)(F)F)nn1CC(=O)N1CCC(c2nc(-c3ccc([N+](=O)[O-])cc3)cs2)CC1 [Compound 248] | 90 | 73 | 26 | 
Cc1cc(C(F)(F)F)nn1CC(=O)N1CCC(c2nc(-c3ccc(Br)cc3)cs2)CC1 [Compound 249] | 99 | 64 | 0 | 
Cc1cc(C(F)(F)F)nn1CC(=O)N1CCC(c2nc(-c3ccc(I)cc3)cs2)CC1 [Compound 250] | 86 | 58 | 0 | 
Cc1cc(C(F)(F)F)nn1CC(=O)N1CCC(c2nc(C3=NOC4(CCCc5cc(C#N)ccc54)C3)cs2)CC1 (stereo not drawn) [Compound 251] | 99 | 100 | 99 | 
Cc1cc(C(F)(F)F)nn1CC(=O)N1CCC(c2nc(C3=NOC4(CC(=O)N(c5ccccc5)C4=O)C3)cs2)CC1 (stereo not drawn) [Compound 252] | 88 | 91 | 97 | 
